The record followed here is patent publication US8088758B2, “17β-hydroxysteroid dehydrogenase type I inhibitors” (Abbott Products GmbH, priority 2003, dated 2012).

For this assay, the target named is T1, recombinant human 17β-hydroxysteroid dehydrogenase type 1 (Homo sapiens, UniProt P14061).
T1 construct: made in house; host or cells: Sf9 insect cells (baculovirus, Bac to Bac Expression System)
T1 sequence (P14061 1-328): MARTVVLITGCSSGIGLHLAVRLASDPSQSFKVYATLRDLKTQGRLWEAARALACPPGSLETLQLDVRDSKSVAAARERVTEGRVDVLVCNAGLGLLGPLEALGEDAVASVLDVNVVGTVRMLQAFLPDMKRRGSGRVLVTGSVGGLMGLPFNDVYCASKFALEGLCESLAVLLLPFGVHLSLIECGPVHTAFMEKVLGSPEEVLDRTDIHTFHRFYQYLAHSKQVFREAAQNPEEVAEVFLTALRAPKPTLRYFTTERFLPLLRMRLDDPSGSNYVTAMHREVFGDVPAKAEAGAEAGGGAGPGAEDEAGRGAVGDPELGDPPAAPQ
Description: Inhibition of recombinant human 17β-hydroxysteroid dehydrogenase type 1 (conversion of 3H-estrone to estradiol, HPLC). To be noted: 30 nM 3H-estrone, 1 mM NADPH, 30 min at RT; for inhibition at 0.1 µM: inhibitor 100 nM, read-out: Inhibition of rec. 17β-HSD1 (% inhibition), 100 nM; for inhibition at 1 µM: inhibitor 1 μm, read-out: Inhibition of rec. 17β-HSD1 (% inhibition), 1 μm. Format: biochemical. The procedure:
1. Inhibition of the 17β-hydroxysteroid Dehydrogenase Type 1 Enzyme
17β-HSD1 Purification: Recombinant baculovirus was generated by the “Bac to Bac Expression System” (Invitrogen). Recombinant bacmid was transfected to Sf9 insect cells using “Cellfectin Reagent” (Invitrogen). 60 h later cells were harvested; the microsomal fraction was isolated as described by Puranen et al. 1994. Aliquots were stored frozen until determination of enzymatic activity.
Assay—Inhibition of Recombinant Human 17β-hydroxysteroid Dehydrogenase Type 1:
Recombinant protein (0.1 μg/ml) was incubated in 20 mM KH2PO4 pH 7.4 with 30 nM 3H-estrone and 1 mM NADPH for 30 min at RT, in the presence of potential inhibitors at concentrations of 1 μM or 0.1 μM. Inhibitor stock solutions were prepared in DMSO. Final concentration of DMSO was adjusted to 1% in all samples. The enzyme reaction was stopped by addition of 10% trichloroacetic acid (final concentration). Samples were centrifuged in a microtiter plate at 4000 rpm for 10 min. Supernatants were applied to reverse phase HPLC on a Waters Symmetry C18 column, equipped with a Waters Sentry Guard column. Isocratic HPLC runs were performed at RT at a flow rate of 1 ml/min of acetonitrile:water 48:52 as running solvent. Radioactivity was monitored in the eluate by a Packard Flow Scintillation Analyzer. Total radioactivity for estrone and estradiol were determined in each sample and percent conversion of estrone to estradiol was calculated according to the following formula:
Percent inhibition was calculated as follows: % inhibition=100−% conversion

As usually defined, the inhibition is the drop in the measured response relative to a control, in per cent. Consider `C[C@]12CC[C@@H]3c4ccc(O)cc4CC[C@H]3[C@@H]1[C@H](CCCC(=O)N1CCOCC1)CC2=O` [Example 1, 3-Hydroxy-15β-(4-morpholin-4-yl-4-oxo-butyl)-estra-1,3,5(10)-trien-17-one], for which the inhibition at 0.1 µM came out at 49.9% and the inhibition at 1 µM stood at 80.2%.

`C[C@]12CC[C@@H]3c4ccc(O)cc4CC[C@H]3[C@@H]1[C@H](CCCC(=O)NCc1ccccc1)CC2=O` [Example 3A, N-Benzyl-4-(3-hydroxy-17-oxo-estra-1,3,5(10)-trien-15β-yl)-butyramide]: the inhibition at 0.1 µM is 51.6% and the inhibition at 1 µM worked out at 84.1%.

As for `COc1ccc2c(c1)CC[C@H]1[C@@H]3[C@H](CCCC(=O)NCc4ccccc4)CC(=O)[C@@]3(C)CC[C@H]21` [Example 3B, N-Benzyl-4-(3-methoxy-17-oxo-estra-1,3,5(10)-trien-15β-yl)-butyramide], the inhibition at 0.1 µM was 77.4% and the inhibition at 1 µM stood at 82.1%.

For `CNC(=O)CCC[C@@H]1CC(=O)[C@@]2(C)CC[C@@H]3c4ccc(O)cc4CC[C@H]3[C@H]12` [Example 4A, 4-(3-Hydroxy-17-oxo-estra-1,3,5(10)-trien-15β-yl)-N-methyl-butyramide], the inhibition at 0.1 µM was 47.1% and the inhibition at 1 µM came to 66%.

`CNC(=O)CCC[C@@H]1CC(=O)[C@@]2(C)CC[C@@H]3c4ccc(OC)cc4CC[C@H]3[C@H]12` [Example 4B, 4-(3-Methoxy-17-oxo-estra-1,3,5(10)-trien-15β-yl)-N-methyl-butyramide]: the inhibition at 0.1 µM was found to be 30.5% and the inhibition at 1 µM came to 60.8%.

With `COc1ccc2c(c1)CC[C@H]1[C@@H]3[C@H](CCCC(=O)NCc4ccco4)CC(=O)[C@@]3(C)CC[C@H]21` [Example 7], the inhibition at 0.1 µM was 28.7% and the inhibition at 1 µM was 63.4%.

As to `COc1ccc2c(c1)CCC1C2CC[C@]2(C)C(=O)C[C@@H](CCCC(=O)NCCc3ccc(O)cc3)C12` (some centres unmarked) [Example 22], the inhibition at 0.1 µM was determined as 27.3% and the inhibition at 1 µM was found to be 57.8%.

Consider `COc1ccc2c(c1)CCC1C2CC[C@]2(C)C(=O)C[C@@H](CCCC(=O)NCCc3cccs3)C12` (some centres unmarked) [Example 29], for which the inhibition at 0.1 µM was found to be 29.6% and the inhibition at 1 µM was 69.3%.

On to `COc1ccc2c(c1)CCC1C2CC[C@]2(C)C(=O)C[C@@H](CCCC(=O)NCCc3c[nH]c4c(C)cccc34)C12` (some centres unmarked) [Example 31], for which the inhibition at 0.1 µM came out at 52.8% and the inhibition at 1 µM was 77.9%.

Turning to `Cc1cccc2c(CCNC(=O)CCC[C@@H]3CC(=O)[C@@]4(C)CC[C@@H]5c6ccc(O)cc6CC[C@H]5[C@H]34)c[nH]c12` [Example 36, 4-(3-Hydroxy-17-oxo-estra-1,3,5(10)-trien-15β-yl)-N-[2-(7-methyl-1H-indol-3-yl)-ethyl]-butyramide], the inhibition at 0.1 µM is 72.9% and the inhibition at 1 µM amounted to 94.3%.

Turning to `C[C@]12CC[C@@H]3c4ccc(O)cc4CC[C@H]3[C@@H]1[C@H](CCCC(=O)NCc1ccc(F)cc1F)CC2=O` [Example 37, N-(2,4-Difluoro-benzyl)-4-(3-hydroxy-17-oxo-estra-1,3,5(10)-trien-15β-yl)-butyramide], the inhibition at 0.1 µM came out at 47.4% and the inhibition at 1 µM was 87.2%.

On to `CN(Cc1ccccc1)C(=O)CCC[C@@H]1CC(=O)[C@@]2(C)CC[C@@H]3c4ccc(O)cc4CC[C@H]3[C@H]12` [Example 38, N-Benzyl-4-(3-hydroxy-17-oxo-estra-1,3,5(10)-trien-15β-yl)-N-methyl-butyramide], for which the inhibition at 0.1 µM was found to be 60.5% and the inhibition at 1 µM came out at 89.5%.

Consider `C[C@]12CC[C@@H]3c4ccc(O)cc4CC[C@H]3[C@@H]1[C@@H](CCCC(=O)NCc1ccccc1)CC2=O` [Example 39, N-Benzyl-4-(3-hydroxy-17-oxo-estra-1,3,5(10)-trien-15α-yl)-butyramide], for which the inhibition at 0.1 µM stood at 41.8% and the inhibition at 1 µM stood at 82.4%.

Consider `C[C@]12CC[C@@H]3c4ccc(O)cc4CC[C@H]3[C@@H]1[C@@H](CCCC(=O)N1CCOCC1)CC2=O` [Example 40, 3-Hydroxy-15α-(4-morpholin-4-yl-4-oxo-butyl)-estra-1,3,5(10)-trien-17-one], for which the inhibition at 0.1 µM stood at 32.3% and the inhibition at 1 µM came out at 79.4%.

In the case of `COc1ccc2c(c1)CCC1C2CC[C@]2(C)C(=O)C[C@H](C(=O)NCc3nc4ccccc4[nH]3)C12` (some centres unmarked) [Example 58], the inhibition at 0.1 µM came to 25% and the inhibition at 1 µM worked out at 65.3%.

As to `COc1ccc2c(c1)CCC1C2CC[C@]2(C)C(=O)C[C@H](C(=O)Nc3ncc(C)s3)C12` (some centres unmarked) [Example 105], the inhibition at 0.1 µM came to 33.8% and the inhibition at 1 µM was found to be 81%.

Regarding `COc1ccc2c(c1)CCC1C2CC[C@]2(C)C(=O)C[C@H](C(=O)N(C)Cc3cccc4ccccc34)C12` (some centres unmarked) [Example 152], the inhibition at 0.1 µM worked out at 25.6% and the inhibition at 1 µM turned out to be 41.4%.

For the molecule `COc1ccc2c(c1)CC[C@H]1[C@@H]3[C@H](CCC(=O)NC4CCCCC4)CC(=O)[C@@]3(C)CC[C@H]21` [Example 310], the inhibition at 0.1 µM is 67.9% and the inhibition at 1 µM was 91.7%.

In the case of `COc1ccc2c(c1)CC[C@H]1[C@@H]3[C@H](CCC(=O)N(C)C4CCCCC4)CC(=O)[C@@]3(C)CC[C@H]21` [Example 313], the inhibition at 0.1 µM is 62.6% and the inhibition at 1 µM was determined as 93%.

As to `CCOC(=O)Cc1csc(NC(=O)CC[C@@H]2CC(=O)[C@@]3(C)CC[C@@H]4c5ccc(OC)cc5CC[C@H]4[C@H]23)n1` [Example 314], the inhibition at 0.1 µM stood at 33.6% and the inhibition at 1 µM turned out to be 62.1%.

With `COc1ccc2c(c1)CC[C@H]1[C@@H]3[C@H](CCC(=O)NCc4ccc5c(c4)OCO5)CC(=O)[C@@]3(C)CC[C@H]21` [Example 315], the inhibition at 0.1 µM was 29% and the inhibition at 1 µM was found to be 74.4%.

For the molecule `COc1ccc2c(c1)CC[C@H]1[C@@H]3[C@H](CCC(=O)N4CCOCC4)CC(=O)[C@@]3(C)CC[C@H]21` [Example 316], the inhibition at 0.1 µM came out at 25.3% and the inhibition at 1 µM came out at 74.5%.

As to `COc1ccc2c(c1)CC[C@H]1[C@@H]3[C@H](CCC(=O)NCc4cccc(F)c4)CC(=O)[C@@]3(C)CC[C@H]21` [Example 322], the inhibition at 0.1 µM worked out at 45.7% and the inhibition at 1 µM was determined as 66.3%.

In the case of `COc1ccc2c(c1)CC[C@H]1[C@@H]3[C@H](CCC(=O)NCc4ccc(Cl)cc4)CC(=O)[C@@]3(C)CC[C@H]21` [Example 323], the inhibition at 0.1 µM was determined as 28.5% and the inhibition at 1 µM was 72.7%.

As to `COc1ccc2c(c1)CC[C@H]1[C@@H]3[C@H](CCC(=O)NCCc4ccc(O)cc4)CC(=O)[C@@]3(C)CC[C@H]21` [Example 324], the inhibition at 0.1 µM amounted to 57.9% and the inhibition at 1 µM amounted to 91.5%.

Take `COc1ccc2c(c1)CC[C@H]1[C@@H]3[C@H](CCC(=O)NCCc4cccs4)CC(=O)[C@@]3(C)CC[C@H]21` [Example 327]: the inhibition at 0.1 µM amounted to 28.7% and the inhibition at 1 µM turned out to be 77%.

With `COc1ccc2c(c1)CC[C@H]1[C@@H]3[C@H](CCC(=O)Nc4ncc(C)s4)CC(=O)[C@@]3(C)CC[C@H]21` [Example 329], the inhibition at 0.1 µM amounted to 78.9% and the inhibition at 1 µM was 96.2%.

As to `COc1ccc2c(c1)CC[C@H]1[C@@H]3[C@H](CCCCC(=O)NC4CC4)CC(=O)[C@@]3(C)CC[C@H]21` [Example 330], the inhibition at 0.1 µM amounted to 25.2% and the inhibition at 1 µM was 75.9%.

Turning to `COc1ccc2c(c1)CC[C@H]1[C@@H]3[C@H](CCCCC(=O)NC4CCCCC4)CC(=O)[C@@]3(C)CC[C@H]21` [Example 331], the inhibition at 0.1 µM came to 37% and the inhibition at 1 µM is 88%.

For `COc1ccc2c(c1)CC[C@H]1[C@@H]3[C@H](CCCCC(=O)NCc4ccco4)CC(=O)[C@@]3(C)CC[C@H]21` [Example 333], the inhibition at 0.1 µM amounted to 47.9% and the inhibition at 1 µM is 91%.

Consider `COc1ccc2c(c1)CC[C@H]1[C@@H]3[C@H](CCCCC(=O)NCc4ccc5c(c4)OCO5)CC(=O)[C@@]3(C)CC[C@H]21` [Example 335], for which the inhibition at 0.1 µM was found to be 59% and the inhibition at 1 µM stood at 90.5%.
